# Values quoted from earlier work in patent US20220280453A1, “Pharmaceutical Formulation” (Klaria Pharma Holding AB, priority 2019, published 2022).
# Structures can show the parent of a compound that is named as a salt.
# Conditions: counterions of strong acids; Shannon effective ionic radii
row,Structure (SMILES),Ionic radius
1,"Br [Bromide (Br^−), Bromide]",1.96 Å
2,"Cl [Chloride (Cl^−), Chloride]",1.81 Å
3,"F [Fluoride (F^−), Fluoride]",1.33 Å
4,"I [Iodide (I^−), Iodide]",2.20 Å
5,"O=[N+]([O-])O [Nitrate (NO3^−), Nitrate]",2.62 Å
6,"O=S(=O)(O)O [Sulfate (SO4^2−), Sulfate]",2.89 Å

# Conditions: ionized form
row,Structure (SMILES),pH at which most stable in solution
1,"CNC1(c2ccccc2Cl)CCCCC1=O (racemic) [Ketamine, ketamine]",around 4
